Molecular target: SARS-CoV-2 M^pro protease (Severe acute respiratory syndrome coronavirus 2 (2019-nCoV) (SARS-CoV-2), UniProt P0DTD1)
Assay: biochemical
Format: biochemical
Conditions: Table 5A; M^pro 75 nM, substrate 10 μM

**Q.** Which IC50 does the source give for Cc1cccnc1CN1C(=O)NC2(CC(C(C)(C)C)C2)C1=O (stereo not drawn) [Compound 9, 2-tert-butyl-7-[(3-methylpyridin-2-yl)methyl]-5,7-diazaspiro[3.4]octane-6,8-dione] here?
**A.** > 10000 nM

**Q.** Cc1c(Br)cncc1N1C(=O)NC2(CC(C3CCC3)C2)C1=O (stereo not drawn) [Compound 6, 7-(5-bromo-4-methylpyridin-3-yl)-2-cyclobutyl-5,7-diazaspiro[3.4]octane-6,8-dione] was tested. Which IC50 did it give?
**A.** 2000 nM

**Q.** Which IC50 does the source give for Cc1c(Br)cncc1N1C(=O)NC2(CC(C(C)(C)C)C2)C1=O (stereo not drawn) [Compound 5, 7-(5-bromo-4-methylpyridin-3-yl)-2-tert-butyl-5,7-diazaspiro[3.4]octane-6,8-dione] here?
**A.** 2700 nM

Same assay, conditions: Tables 5B-5E; M^pro 75 nM, substrate 10 μM

**Q.** How did the IC50 turn out when N#CCN1C(=O)N(c2cncc3ccccc23)C(=O)C12CC(C1CCC1)C2 (stereo not drawn) [Compound 72, 2-(2-cyclobutyl-7-(isoquinolin-4-yl)-6,8-dioxo-5,7-diazaspiro[3.4]octan-5-yl)acetonitrile] was run?
**A.** 1360 nM

**Q.** O=C(CN1C(=O)N(c2cncc3ccccc23)C(=O)C12CC(C1CCC1)C2)c1ccccn1 (stereo not drawn) [Compound 73, 2-cyclobutyl-7-(isoquinolin-4-yl)-5-(2-oxo-2-(pyridin-2-yl)ethyl)-5,7-diazaspiro[3.4]octane-6,8-dione] was tested. Which IC50 did it give?
**A.** 1440 nM

**Q.** How did the IC50 turn out when O=C1NC2(CC(c3c(Cl)cccc3Cl)C2)C(=O)N1c1cncc2ccccc12 (single isomer, unassigned) [Compound 28, 2-(2,6-dichlorophenyl)-7-(isoquinolin-4-yl)-5,7-diazaspiro[3.4]octane-6,8-dione] was run?
**A.** 291 nM

**Q.** Which IC50 does the source give for O=C1N(c2cncc3ccccc23)C(=O)C2(CC(C3CCC3)C2)N1Cc1ccn[nH]1 (stereo not drawn) [Compound 80, 5-((1H-pyrazol-5-yl)methyl)-2-cyclobutyl-7-(isoquinolin-4-yl)-5,7-diazaspiro[3.4]octane-6,8-dione] here?
**A.** 3820 nM

**Q.** How did the IC50 turn out when O=C1NC2(CC(c3sccc3Cl)C2)C(=O)N1c1cncc2ccccc12 (single isomer, unassigned) [Compound 42, 2-(3-chlorothiophen-2-yl)-7-(isoquinolin-4-yl)-5,7-diazaspiro[3.4]octane-6,8-dione] was run?
**A.** 185 nM

**Q.** For O=C1NC2(CC(c3ccc(F)cc3Cl)C2)C(=O)N1c1cncc2ccccc12 (stereo not drawn) [Compound 32, 2-(2-chloro-4-fluorophenyl)-7-(isoquinolin-4-yl)-5,7-diazaspiro[3.4]octane-6,8-dione], which IC50 is on record?
**A.** 95 nM

**Q.** With O=C1NC2(CC(c3cc(F)c(F)cc3Cl)C2)C(=O)N1c1cncc2ccccc12 (stereo not drawn) [Compound 87, 2-(2-chloro-4,5-difluorophenyl)-7-(isoquinolin-4-yl)-5,7-diazaspiro[3.4]octane-6,8-dione] as the compound, how does the IC50 read?
**A.** 115 nM

**Q.** For CN(C)c1ccncc1N1C(=O)NC2(CC(c3ccccc3Cl)C2)C1=O (stereo not drawn) [Compound 93, 2-(2-chlorophenyl)-7-(4-(dimethylamino)pyridin-3-yl)-5,7-diazaspiro[3.4]octane-6,8-dione], which IC50 is on record?
**A.** 157 nM

**Q.** Which IC50 does the source give for O=C1NC2(CC(c3ccccc3F)C2)C(=O)N1c1cncc2ccccc12 (stereo not drawn) [Compound 19, 2-(2-fluorophenyl)-7-(isoquinolin-4-yl)-5,7-diazaspiro[3.4]octane-6,8-dione] here?
**A.** 326 nM

**Q.** O=C1NC2(CC(c3ccccc3Cl)C2)C(=O)N1c1cncc2nc[nH]c12 (stereo not drawn) [Compound 97, 2-(2-chlorophenyl)-7-(1H-imidazo[4,5-c]pyridin-7-yl)-5,7-diazaspiro[3.4]octane-6,8-dione] was tested. Which IC50 did it give?
**A.** 287 nM

**Q.** How did the IC50 turn out when CC1(c2ccccc2)CC2(C1)NC(=O)N(c1cncc3ccccc13)C2=O (single isomer, unassigned) [Compound 38, 7-(isoquinolin-4-yl)-2-methyl-2-phenyl-5,7-diazaspiro[3.4]octane-6,8-dione] was run?
**A.** 71 nM

**Q.** For O=C1NC2(CC(c3ccccc3C(F)(F)F)C2)C(=O)N1c1cncc2ccccc12 (stereo not drawn) [Compound 22, 7-(isoquinolin-4-yl)-2-(2-(trifluoromethyl)phenyl)-5,7-diazaspiro[3.4]octane-6,8-dione], which IC50 is on record?
**A.** 197 nM

**Q.** With O=C1NC2(CC(c3cc(F)ccc3Cl)C2)C(=O)N1c1cncc2ccccc12 (single isomer, unassigned) [Compound 35, 2-(2-chloro-5-fluorophenyl)-7-(isoquinolin-4-yl)-5,7-diazaspiro[3.4]octane-6,8-dione] as the compound, how does the IC50 read?
**A.** 82 nM

**Q.** How did the IC50 turn out when O=C1NC2(CC(c3ccccc3Br)C2)C(=O)N1c1cncc2ccccc12 (single isomer, unassigned) [Compound 17, 2-(2-bromophenyl)-7-(isoquinolin-4-yl)-5,7-diazaspiro[3.4]octane-6,8-dione] was run?
**A.** 79 nM

**Q.** For O=C1NC2(CC(c3ccccc3Cl)C2)C(=O)N1c1cnnc2ccccc12 (stereo not drawn) [Compound 94, 2-(2-chlorophenyl)-7-(cinnolin-4-yl)-5,7-diazaspiro[3.4]octane-6,8-dione], which IC50 is on record?
**A.** 1800 nM

**Q.** Which IC50 does the source give for O=C1NC2(CC(c3ccccc3Cl)C2)C(=O)N1c1cncc2ccc(F)cc12 (stereo not drawn) [Compound 54, 2-(2-chlorophenyl)-7-(6-fluoroisoquinolin-4-yl)-5,7-diazaspiro[3.4]octane-6,8-dione] here?
**A.** 66 nM

**Q.** For O=C1NC2(CC(c3sccc3Cl)C2)C(=O)N1c1cncc2ccccc12 (single isomer, unassigned) [Compound 43, 2-(3-chlorothiophen-2-yl)-7-(isoquinolin-4-yl)-5,7-diazaspiro[3.4]octane-6,8-dione], which IC50 is on record?
**A.** 59 nM

**Q.** How did the IC50 turn out when O=C1NC2(CC(OCc3ccccc3)C2)C(=O)N1c1cncc2ccccc12 (stereo not drawn) [Compound 48, 2-(benzyloxy)-7-(isoquinolin-4-yl)-5,7-diazaspiro[3.4]octane-6,8-dione] was run?
**A.** 2580 nM

**Q.** With O=C1NC2(CC(c3ccsc3Cl)C2)C(=O)N1c1cncc2ccccc12 (single isomer, unassigned) [Compound 40, 2-(2-chlorothiophen-3-yl)-7-(isoquinolin-4-yl)-5,7-diazaspiro[3.4]octane-6,8-dione] as the compound, how does the IC50 read?
**A.** 304 nM

**Q.** With O=C1NC2(CC(c3sccc3Br)C2)C(=O)N1c1cncc2ccccc12 (single isomer, unassigned) [Compound 44, 2-(3-bromothiophen-2-yl)-7-(isoquinolin-4-yl)-5,7-diazaspiro[3.4]octane-6,8-dione] as the compound, how does the IC50 read?
**A.** 81 nM

**Q.** With CN1C(=O)N(c2cncc3ccccc23)C(=O)C12CC(c1ccccc1Cl)C2 (stereo not drawn) [Compound 68, 2-(2-chlorophenyl)-7-(isoquinolin-4-yl)-5-methyl-5,7-diazaspiro[3.4]octane-6,8-dione] as the compound, how does the IC50 read?
**A.** 453 nM

**Q.** How did the IC50 turn out when CC1(c2ccccc2Cl)CC2(C1)NC(=O)N(c1cncc3ccccc13)C2=O (stereo not drawn) [Compound 95, 2-(2-chlorophenyl)-7-(isoquinolin-4-yl)-2-methyl-5,7-diazaspiro[3.4]octane-6,8-dione] was run?
**A.** 69 nM

**Q.** How did the IC50 turn out when O=C1NC2(CC(c3ccccc3Cl)C2)C(=O)N1c1cccnc1 (stereo not drawn) [Compound 100, 2-(2-chlorophenyl)-7-(pyridin-3-yl)-5,7-diazaspiro[3.4]octane-6,8-dione] was run?
**A.** 295 nM

**Q.** With O=C1NC2(CC(c3c(F)cccc3Cl)C2)C(=O)N1c1cncc2ccccc12 (single isomer, unassigned) [Compound 36, 2-(2-chloro-6-fluorophenyl)-7-(isoquinolin-4-yl)-5,7-diazaspiro[3.4]octane-6,8-dione] as the compound, how does the IC50 read?
**A.** 205 nM

**Q.** For O=C1NC2(CC(c3ccccc3Cl)C2)C(=O)N1c1cncc2nccn12 (stereo not drawn) [Compound 99, 2-(2-chlorophenyl)-7-(imidazo[1,2-a]pyrazin-5-yl)-5,7-diazaspiro[3.4]octane-6,8-dione], which IC50 is on record?
**A.** 780 nM

**Q.** For O=C1NC2(CC(c3sccc3Br)C2)C(=O)N1c1cncc2ccccc12 (single isomer, unassigned) [Compound 45, 2-(3-bromothiophen-2-yl)-7-(isoquinolin-4-yl)-5,7-diazaspiro[3.4]octane-6,8-dione], which IC50 is on record?
**A.** 57 nM

**Q.** How did the IC50 turn out when O=C1NC2(CC(c3ccsc3Cl)C2)C(=O)N1c1cncc2ccccc12 (single isomer, unassigned) [Compound 41, 2-(2-chlorothiophen-3-yl)-7-(isoquinolin-4-yl)-5,7-diazaspiro[3.4]octane-6,8-dione] was run?
**A.** 81 nM

**Q.** For COc1ccccc1C1CC2(C1)NC(=O)N(c1cncc3ccccc13)C2=O (stereo not drawn) [Compound 20, 7-(isoquinolin-4-yl)-2-(2-methoxyphenyl)-5,7-diazaspiro[3.4]octane-6,8-dione], which IC50 is on record?
**A.** 477 nM

**Q.** With O=C1NC2(CC(c3cn(Cc4ccccc4)nn3)C2)C(=O)N1c1cncc2ccccc12 (stereo not drawn) [Compound 47, 2-(1-benzyl-1H-1,2,3-triazol-4-yl)-7-(isoquinolin-4-yl)-5,7-diazaspiro[3.4]octane-6,8-dione] as the compound, how does the IC50 read?
**A.** 10800 nM

**Q.** How did the IC50 turn out when O=C1NC2(CC(c3c(F)cccc3Cl)C2)C(=O)N1c1cncc2ccccc12 (single isomer, unassigned) [Compound 37, 2-(2-chloro-6-fluorophenyl)-7-(isoquinolin-4-yl)-5,7-diazaspiro[3.4]octane-6,8-dione] was run?
**A.** 64 nM

**Q.** For Cc1ccc2cncc(N3C(=O)NC4(CC(C5CCC5)C4)C3=O)c2c1 (stereo not drawn) [Compound 58, 2-cyclobutyl-7-(6-methylisoquinolin-4-yl)-5,7-diazaspiro[3.4]octane-6,8-dione], which IC50 is on record?
**A.** 361 nM

**Q.** Which IC50 does the source give for O=C1N(c2cncc3ccccc23)C(=O)C2(CC(C3CCC3)C2)N1Cc1ncc[nH]1 (stereo not drawn) [Compound 77, 5-((1H-imidazol-2-yl)methyl)-2-cyclobutyl-7-(isoquinolin-4-yl)-5,7-diazaspiro[3.4]octane-6,8-dione] here?
**A.** 2520 nM

**Q.** O=C1NC2(CC(c3ccccc3F)C2)C(=O)N1c1cncc2ccccc12 (stereo not drawn) [Compound 18, 2-(2-fluorophenyl)-7-(isoquinolin-4-yl)-5,7-diazaspiro[3.4]octane-6,8-dione] was tested. Which IC50 did it give?
**A.** 335 nM

**Q.** For O=C1NC2(CC(c3ccccc3Cl)C2)C(=O)N1c1cc(Br)cnc1F (stereo not drawn) [Compound 85, 7-(5-bromo-2-fluoropyridin-3-yl)-2-(2-chlorophenyl)-5,7-diazaspiro[3.4]octane-6,8-dione], which IC50 is on record?
**A.** 323 nM

Same assay, conditions: percent of control activity at 750 nM; read-out: % activity at 750 nM

**Q.** Which activity at […] does the source give for O=C1NC2(CC(c3ccccc3Cl)C2)C(=O)N1c1c(Cl)ncc2ccccc12 (stereo not drawn) [Compound 86, 7-(3-chloroisoquinolin-4-yl)-2-(2-chlorophenyl)-5,7-diazaspiro[3.4]octane-6,8-dione] here?
**A.** 57%

Same assay, conditions: percent of control activity at 2500 nM; read-out: % activity at 2500 nM

**Q.** Which activity at […] does the source give for O=C1NC2(CC(c3ccccc3Cl)C2)C(=O)N1c1cnccc1Oc1ccccc1 (stereo not drawn) [Compound 82, 2-(2-chlorophenyl)-7-(4-phenoxypyridin-3-yl)-5,7-diazaspiro[3.4]octane-6,8-dione] here?
**A.** 55%

Reference: US20240208970A1, “SUBSTITUTED HYDANTOIN COMPOUNDS, METHODS FOR PREPARATION THEREOF AND USE THEREOF IN THE TREATMENT AND/OR PREVENTION OF A CORONA VIRUS DISEASE” (priority 2021, published 2024)
